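96-well plates; 48 h exposure; 5 concentrations. Endpoints by linear interpolation between flanking doses. Not reached: highest tested concentration assigned. Abbreviation: GI50, concentration required for 50% inhibition of growth.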 Active and inactive are the calls of the source. Rule as the data show it: active = GI50 up to about 1.1 µM and inactive = higher.
Experiments:
Experiment in all cases: NCI tumour cell line growth inhibition, 48 h
[1] = test system: HCC 2998
[2] = test system: HCT-116
[3] = test system: K562
[4] = test system: KM-20L2
[5] = test system: LOX IMVI
[6] = test system: Malme-3M
[7] = test system: NCI-H23
[8] = test system: OVCAR-4
[9] = test system: SK-MEL-2
[10] = test system: SK-MEL-5
[11] = test system: SR
[12] = test system: TK-10
[13] = test system: U-251
[14] = test system: UACC-257

Measured: GI50

COc1cc2c(cc1OC)[C@@H]([C@H](O)c1ccccc1)NCC2
inactive: [1] > 100 µM | [2] > 100 µM | [3] > 100 µM | [4] > 100 µM | [5] > 100 µM | [6] > 100 µM | [7] > 100 µM | [8] > 100 µM | [9] > 100 µM | [10] > 100 µM | [11] > 100 µM | [12] > 100 µM | [13] > 100 µM | [14] > 100 µM

Cc1ccc(NC(=O)CC/C(CC(=O)C(C)(C)C)=N\Nc2ccc([N+](=O)[O-])cc2[N+](=O)[O-])cc1C
inactive: [2] 50.5 µM | [3] 28.3 µM | [4] > 100 µM | [5] 31.6 µM | [7] 46.2 µM | [9] 76.4 µM | [11] 39.7 µM | [12] > 100 µM | [13] 58.1 µM | [14] > 100 µM

NC1=NN(c2ccccc2)C(=O)C1C(=O)CCC(=O)Nc1cccc(Cl)c1 (stereo not drawn)
inactive: [1] > 100 µM | [2] > 100 µM | [3] > 100 µM | [4] > 100 µM | [5] > 100 µM | [6] > 100 µM | [7] > 100 µM | [8] > 100 µM | [9] > 100 µM | [10] > 100 µM | [12] > 100 µM | [13] > 100 µM | [14] > 100 µM

CCOc1ccc(/C(Cl)=C(\C=O)c2ccc(OC)c(OC)c2)cc1OCC
inactive: [1] 30 µM | [2] 33.8 µM | [3] 23.5 µM | [4] > 100 µM | [5] 64.1 µM | [6] 37.5 µM | [7] 23.3 µM | [8] 38.7 µM | [9] > 100 µM | [10] 22.5 µM | [11] 20.3 µM | [12] 80.9 µM | [13] 32.9 µM | [14] 32.3 µM

COc1cc(C2C(Cl)C(=O)N2NC(=O)Cc2ccccc2)ccc1O (stereo not drawn)
inactive: [1] 57.5 µM | [2] 45.6 µM | [3] 35.2 µM | [4] > 100 µM | [5] 77.4 µM | [6] > 100 µM | [7] 45.1 µM | [8] > 100 µM | [9] > 100 µM | [10] 69.7 µM | [11] 18.3 µM | [12] > 100 µM | [13] 79.3 µM | [14] > 100 µM

COc1ccc(C(C2=C(O)CC(C)OC2=O)C2=C(O)CC(C)OC2=O)cc1 (stereo not drawn)
inactive: [1] > 100 µM | [2] > 100 µM | [3] > 100 µM | [4] > 100 µM | [5] > 100 µM | [6] > 100 µM | [7] > 100 µM | [8] > 100 µM | [9] > 100 µM | [10] > 100 µM | [11] > 100 µM | [13] > 100 µM | [14] > 100 µM

OCC(O)C(OC1OC(CO)C(O)C(O)C1O)c1nn(-c2ccc(F)cc2)c2nc3cc(Cl)c(Cl)cc3cc12 (stereo not drawn)
inactive: [1] > 100 µM | [2] > 100 µM | [3] > 100 µM | [4] > 100 µM | [5] > 100 µM | [6] > 100 µM | [7] > 100 µM | [8] > 100 µM | [11] > 100 µM | [12] > 100 µM | [13] > 100 µM | [14] > 100 µM

COc1ccc2[nH]c3c4c(c5cc(C(C)(C)C)ccc5c3c2c1)C(=O)N(c1ccccc1)C4=O
inactive: [1] 21.3 µM | [2] > 100 µM | [3] > 100 µM | [4] > 100 µM | [5] > 100 µM | [6] > 100 µM | [7] > 100 µM | [8] > 100 µM | [9] > 100 µM | [10] > 100 µM | [12] 60.5 µM | [13] 27.7 µM | [14] > 100 µM

O=C(/N=C(\Nc1ccccc1)SCCS/C(=N/C(=O)c1cccs1)Nc1ccccc1)c1cccs1
inactive: [1] 35.1 µM | [2] 49 µM | [3] 35.2 µM | [4] 41.9 µM | [5] 36.3 µM | [6] 91.6 µM | [7] 46.2 µM | [8] 30.3 µM | [9] 94.6 µM | [10] 21.5 µM | [12] > 100 µM | [13] 96.6 µM | [14] 33 µM

ClCc1ccc(C2OCCO2)cc1
inactive: [1] 17.8 µM | [2] > 35.6 µM | [3] > 31.6 µM | [4] > 45.9 µM | [5] 7.23 µM | [6] 20.3 µM | [7] 12.2 µM | [9] 21.1 µM | [10] 24.8 µM | [11] 11.1 µM | [12] > 49 µM | [13] 12.2 µM | [14] 14.5 µM

Cc1ccccc1NC(=O)/C=N/O
inactive: [1] > 100 µM | [2] > 100 µM | [3] > 100 µM | [4] 16.9 µM | [5] > 100 µM | [6] > 100 µM | [7] > 100 µM | [8] > 100 µM | [9] > 100 µM | [10] > 100 µM | [11] > 100 µM | [12] > 100 µM | [13] > 100 µM | [14] > 100 µM

COC(c1ccccc1)C(c1ccccc1)N1CCOCC1 (stereo not drawn)
inactive: [1] > 100 µM | [2] > 100 µM | [3] > 100 µM | [4] > 100 µM | [5] > 100 µM | [6] > 100 µM | [7] > 100 µM | [8] > 100 µM | [9] > 100 µM | [10] > 100 µM | [12] > 100 µM | [13] > 100 µM | [14] > 100 µM

O=C1C(Cl)C(c2ccccc2O)N1n1cnc2ccccc2c1=O (stereo not drawn)
inactive: [1] > 100 µM | [2] 64.3 µM | [3] 58.1 µM | [4] 78.3 µM | [5] 61 µM | [6] 75.3 µM | [7] 49 µM | [8] 23.7 µM | [9] > 100 µM | [10] 56.2 µM | [11] 27.4 µM | [12] > 100 µM | [13] 43.3 µM | [14] 46.7 µM

O=C1Nc2ccccc2N=CC1NC(=O)C(c1ccccc1)c1ccccc1 (stereo not drawn)
inactive: [1] > 100 µM | [2] > 100 µM | [3] > 100 µM | [4] > 100 µM | [5] > 100 µM | [6] > 100 µM | [7] > 100 µM | [8] > 100 µM | [9] > 100 µM | [10] > 100 µM | [12] > 100 µM | [13] > 100 µM | [14] > 100 µM

COC1CCC(OS(C)(=O)=O)C(CO)O1 (stereo not drawn)
inactive: [1] > 100 µM | [2] > 100 µM | [3] > 100 µM | [4] > 100 µM | [5] > 100 µM | [6] > 100 µM | [7] > 100 µM | [9] > 100 µM | [10] > 10 µM | [11] > 100 µM | [12] > 100 µM | [13] > 100 µM | [14] > 100 µM

O=C(N/C(=C\c1ccc([N+](=O)[O-])cc1)c1nc2cc(Cl)ccc2[nH]1)c1ccccc1
inactive: [1] 18 µM | [3] 12.8 µM | [4] 16.3 µM | [6] 35.1 µM | [7] 18.1 µM | [8] 15.7 µM | [9] 21.9 µM | [10] 17.6 µM | [11] 18 µM | [12] 32.4 µM | [13] 15.5 µM

CCNC(=O)COc1ccc(Cl)cc1Cl
inactive: [2] > 100 µM | [3] > 100 µM | [4] > 100 µM | [6] > 100 µM | [7] > 100 µM | [9] > 100 µM | [10] > 100 µM | [11] > 100 µM | [13] > 100 µM | [14] > 100 µM

CS/C(=N\c1ccccc1Cl)NC(=O)c1ccc(Br)cc1
inactive: [1] > 100 µM | [2] > 100 µM | [3] 14.9 µM | [4] > 100 µM | [5] > 100 µM | [6] 33.9 µM | [7] > 100 µM | [8] 18.2 µM | [9] 66.7 µM | [11] 40.5 µM | [12] 28.2 µM | [13] 39.5 µM | [14] > 100 µM

Cc1ccccc1NC(=O)/C(=N\NC(N)=S)C(C#N)c1ccccc1 (stereo not drawn)
inactive: [1] > 100 µM | [2] > 100 µM | [3] > 100 µM | [4] > 100 µM | [5] > 100 µM | [6] > 100 µM | [7] > 100 µM | [8] > 100 µM | [9] > 100 µM | [10] > 100 µM | [11] > 100 µM | [12] > 100 µM | [13] > 100 µM | [14] > 100 µM

CC12CCC(=O)C[C@H]1CCC(OC=O)C2Br (stereo partly drawn)
inactive: [1] > 100 µM | [2] > 100 µM | [3] > 100 µM | [4] > 100 µM | [5] > 100 µM | [6] > 100 µM | [7] > 100 µM | [8] > 100 µM | [9] > 100 µM | [10] > 100 µM | [11] > 100 µM | [12] > 100 µM | [13] > 100 µM | [14] > 100 µM

Reference: ChEMBL document CHEMBL1201862, “PubChem BioAssay data set” (2004)
